Source: patent publication US20240226110A1, “5-HT2C AGONIST FOR USE IN TREATING CONDITIONS ASSOCIATED WITH CENTRAL HYPOVENTILATION” (APNIMED, INC. (DELAWARE), priority 2021, published 2024)

Key:
[1] = target: T1, serotonin (5-HT) 2C receptor (Rattus norvegicus, UniProt P08909); details: anesthetized rats; cited from earlier work
T1 construct: increased genioglossus activity and reduced upper airway collapsibility in anesthetized rats; from tissue; host or cells: anesthetized rats (in vivo; hypoglossal motor nucleus / brainstem)
T1 sequence (P08909 33-460): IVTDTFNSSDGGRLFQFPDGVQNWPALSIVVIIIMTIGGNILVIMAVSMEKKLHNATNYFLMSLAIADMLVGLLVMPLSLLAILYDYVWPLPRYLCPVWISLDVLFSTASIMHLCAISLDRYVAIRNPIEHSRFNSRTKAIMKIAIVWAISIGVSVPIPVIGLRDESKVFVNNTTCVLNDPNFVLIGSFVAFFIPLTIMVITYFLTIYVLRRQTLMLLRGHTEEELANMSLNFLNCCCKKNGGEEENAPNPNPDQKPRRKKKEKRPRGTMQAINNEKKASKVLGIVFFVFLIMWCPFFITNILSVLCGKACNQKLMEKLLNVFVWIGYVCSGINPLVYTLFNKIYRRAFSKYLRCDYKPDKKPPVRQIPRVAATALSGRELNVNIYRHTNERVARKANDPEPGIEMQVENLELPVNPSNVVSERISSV

OSA patients = assay: Crossover pilot trial, lorcaserin 15 mg or placebo before bedtime for one night; polysomnography with pneumotach and oronasal mask; type: in vivo, human; details: single patient, hypopneas present in both conditions
Method: In a crossover pilot trial including 6 OSA patients, the patients were administered in random order lorcaserin 15 mg or placebo before bedtime for one night.
Patients were outfitted with the usual polysomnography equipment plus a pneumotach and oronasal mask for accurate ventilation measurements. The effect of lorcaserin on several ventilatory parameters reflecting the upper airway collapsibility and muscle activity were measured using validated algorithms.

| SMILES | genioglossus activity [1] | upper airway collapsibility [1] | ventilation during NREM sleep of a patient, lorcaserin night vs placebo (FIG. 2) (OSA patients) |
| --- | --- | --- | --- |
| COc1cc(CC(C)N)c(OC)cc1I (stereo not drawn) [DOI, 2,5-dimethoxy-4-iodoaminophentamine] | increased | reduced |  |
| C[C@H]1CNCCc2ccc(Cl)cc21 [lorcaserin, (1R)-8-chloro-1-methyl-2,3,4,5-tetrahydro-1H-3-benzazepine] |  |  | increased substantially |
